Where two headings read alike, the source gives them in different places.
Assays:
SARS-CoV-2 replicon = assay: microbe, parasite or virus in culture; format: cell-based; conditions: for IC50: Severe acute respiratory syndrome coronavirus 2, dose-response curves of FIGS. 6A-6B, read-out: IC50, replicon assay, compound alone
[1] = tested on: infectious SARS-CoV-2 (isolate USA-WA1/2020); assay: Antiviral assay, cytopathic effect by MTT in Vero E6 cells; format: cell-based; conditions: for EC50: Severe acute respiratory syndrome coronavirus 2, Vero C1008
[2] = tested on: infectious SARS-CoV-2 (isolate USA-WA1/2020); assay: microbe, parasite or virus in culture; format: cell-based; conditions: for EC50: Severe acute respiratory syndrome coronavirus 2, Vero C1008, Vero E6 cells, read-out: EC50 Plaque
Vero E6 cells = assay: Cellular cytotoxicity by MTT in Vero E6 cells; conditions: for cytotoxicity: Vero E6 and NHBE cells; for CC50: read-out: CC50 Vero E6, absence of virus
[3] = tested on: normal human bronchial epithelial cells (NHBE); assay: Cellular cytotoxicity by MTT in normal human bronchial epithelial cells; conditions: for CC50: read-out: CC50 NHBE, MTT
[4] = target: recombinant SARS-Cov-2 M^pro (Severe acute respiratory syndrome coronavirus 2 (2019-nCoV) (SARS-CoV-2), UniProt P0DTD1); assay: biochemical
[5] = footnote b: drop in viral titer/incomplete inhibition
[6] = Vero E6 cells, MOI 0.01, 72 h, NA = not active, read-out: EC50 MTT
[7] = read-out: IC50 (μM), inhibition of SARS-Cov-2 M^pro, Table 4
[8] = read-out: IC50 (μM), inhibition of SARS-CoV-2 M^pro, Table 1, 100 nM M^pro, triplicate, perampanel: fluorescence of compound interfered with assay
[9] = combination with remdesivir, MacSynergy II

`O=c1nc(NO)ccn1[C@@H]1O[C@H](CO)C(O)[C@@H]1O` (stereo partly drawn) [EIDD-1931, reference compound] gave an IC50 (SARS-CoV-2 replicon) of 2230 nM.

`O=c1[nH]cc(-c2cc(-c3cc(Cl)cc(OCc4ccccc4Cl)c3)c(=O)n(-c3cccnc3)c2)c(=O)[nH]1` [Compound 37, 5-(3-(3-Chloro-5-((2-chlorobenzyl)oxy)phenyl)-2-oxo-2H-[1,3′-bipyridin]-5-yl)pyrimidine-2,4(1H,3H)-dione] was tested, and the “antiviral activity in the MTT assay” value [1] was “lacked antiviral activity”, the “antiviral activity in the viral plaque assay” value [2] was “showed activity” and the EC50 [2, 5] was 11300 nM. The “cytotoxicity” value (Vero E6 cells) was “greatest cytotoxicity”, the CC50 (Vero E6 cells) was 1700 ± 900 nM and the CC50 [3] was 2000 ± 100 nM.

In the case of `O=c1[nH]cc(-c2cc(-c3cc(Cl)cc(OCc4ccccc4)c3)c(=O)n(-c3cccnc3)c2)c(=O)[nH]1` [Compound 46, 5-(3-(3-(Benzyloxy)-5-chlorophenyl)-2-oxo-2H-[1,3′-bipyridin]-5-yl)pyrimidine-2,4(1H,3H)-dione], the “antiviral activity in the viral plaque assay” value [2] is reported as “antiviral activity was found”, the EC50 [2, 5] is reported as 3200 nM and the CC50 (Vero E6 cells) is reported as 12300 ± 7000 nM. For the same compound, the CC50 [3] was 17500 ± 5500 nM.

In the case of `N#Cc1ccccc1-c1cc(-c2cc(Cl)cc(OCC3CC3)c2)c(=O)n(-c2cccnc2)c1` [Compound 39, 2-(3-(3-Chloro-5-(cyclopropylmethoxy)phenyl)-2-oxo-2H-[1,3′-bipyridin]-5-yl)benzonitrile], the EC50 [1, 6] is reported as 2000 ± 700 nM, the EC50 ([1]; read-out: EC50, MTT assay) is reported as ~1000 nM and the “cytotoxicity” value (Vero E6 cells) is reported as “no cytotoxicity to the highest concentration tested (100 μM)”. For the same compound, the CC50 (Vero E6 cells) was > 100000 nM and the CC50 [3] was > 100000 nM.

`N#Cc1ccccc1-c1cc(-c2cc(Cl)cc(Cl)c2)c(=O)n(-c2cccnc2)c1` [Compound 9, 2-(3-(3,5-Dichlorophenyl)-2-oxo-2H-[1,3′-bipyridin]-5-yl)benzonitrile] gave an IC50 ([4]; IC50) of 4.2 µM, an IC50 [4, 7] of 4.02 ± 1.36 µM and an IC50 (SARS-CoV-2 replicon) of 93.8 nM. The “combination behavior” value (SARS-CoV-2 replicon; combination with EIDD-1931) was “synergistic effect”.

`O=c1[nH]cc(-c2cc(-c3cccc(Cl)c3)c(=O)n(-c3cccnc3)c2)c(=O)[nH]1` [Compound 8, 5-(3-(3-Chlorophenyl)-2-oxo-2H-[1,3′-bipyridin]-5-yl)pyrimidine-2,4(1H,3H)-dione] was tested, and the IC50 ([4]; read-out: IC50) was 6.4 µM and the IC50 [4, 7] was 6.38 ± 1.21 µM.

`CCCCOc1cc(Cl)cc(-c2cc(-c3c[nH]c(=O)[nH]c3=O)cn(-c3cccnc3)c2=O)c1` [Compound 25, 5-(3-(3-Butoxy-5-chlorophenyl)-2-oxo-2H-[1,3′-bipyridin]-5-yl)pyrimidine-2,4(1H,3H)-dione] showed an IC50 [4, 8] of 0.25 ± 0.09 µM and an IC50 [4, 7] of 0.25 ± 0.089 µM.

For `CCCOc1cc(Cl)cc(-c2cc(-c3ccccc3C#N)cn(-c3cccnc3)c2=O)c1` [Compound 13, 2-(3-(3-Chloro-5-propoxyphenyl)-2-oxo-2H-[1,3′-bipyridin]-5-yl)benzonitrile], the “factor of improvement in potency over 9” value ([4]; ratio of IC50 values) was “ca. 30”, the EC50 [1, 6] was 2500 ± 700 nM and the EC50 ([1]; read-out: EC50, MTT assay) was 2500 nM. For the same compound, the “combination behavior” value (SARS-CoV-2 replicon; combination with remdesivir) was “statistically significant synergistic behavior”, the antagonism volume (SARS-CoV-2 replicon; [9]) was 0 μM^2% and the mean synergy volume (SARS-CoV-2 replicon; [9]) was 30.8 μM^2%. The CC50 (Vero E6 cells) was 22000 nM and the CC50 [3] was 20000 ± 2000 nM.

With `O=c1[nH]cc(-c2cc(-c3cc(Cl)cc(OCc4ccccc4F)c3)c(=O)n(-c3cccnc3)c2)c(=O)[nH]1` [Compound 34, 5-(3-(3-Chloro-5-((2-fluorobenzyl)oxy)phenyl)-2-oxo-2H-[1,3′-bipyridin]-5-yl)pyrimidine-2,4(1H,3H)-dione] the IC50 ([4]; read-out: IC50) was 0.018 to 0.037 µM, the IC50 [4, 8] was 0.024 ± 0.007 µM and the IC50 [4, 7] was 0.024 µM.

In the case of `N#Cc1ccccc1-c1cc(-c2cc(Cl)cc(OCCC(F)(F)F)c2)c(=O)n(-c2cccnc2)c1` [Compound 47, 2-(3-(3-Chloro-5-(3,3,3-trifluoropropoxy)phenyl)-2-oxo-2H-[1,3′-bipyridin]-5-yl)benzonitrile], the CC50 (Vero E6 cells) is reported as 22000 ± 8000 nM, the “cytotoxicity towards the NHBE cells” value ([3]; compared with 39) is reported as “more cytotoxic” and the CC50 [3] is reported as 25000 ± 5000 nM.

`N#Cc1ccccc1-c1cc(-c2cc(Cl)cc(Cl)c2)c(=O)n(-c2ccc[n+]([O-])c2)c1` [Compound 11] was tested, and the IC50 [4, 7] was 5 to 20 µM.

`O=c1[nH]cc(-c2cc(-c3cc(Cl)cc(OCc4ccccc4)c3)c(=O)n(-c3cccnc3)c2)c(=O)[nH]1` [Compound 21] was tested, and the IC50 ([4]; read-out: IC50) was 0.128 µM and the IC50 [4, 7] was 0.128 ± 0.015 µM.

`N#Cc1[nH]c(=O)ccc1-c1cc(-c2cccc(Cl)c2)c(=O)n(-c2cccnc2)c1` [Compound 23] showed an IC50 [4, 7] of 10 µM.

Work on `COc1ccc(-c2cc(-c3cccc(Cl)c3)c(=O)n(-c3cccnc3)c2)c(C#N)n1` [Compound 22] yielded an IC50 [4, 7] of 10 to 100 µM.

`O=c1[nH]cc(-c2cc(-c3cc(Cl)cc(OCc4c(F)cccc4F)c3)c(=O)n(-c3cccnc3)c2)c(=O)[nH]1` [Compound 36, 5-(3-(3-Chloro-5-((2,6-difluorobenzyl)oxy)phenyl)-2-oxo-2H-[1,3′-bipyridin]-5-yl)pyrimidine-2,4(1H,3H)-dione] was tested, and the IC50 ([4]; read-out: IC50) was 0.018 to 0.037 µM and the IC50 [4, 7] was 0.036 µM.

In the case of `O=c1[nH]cc(-c2cc(-c3cc(Cl)c(F)c(OCc4ccccc4Cl)c3)c(=O)n(-c3cccnc3)c2)c(=O)[nH]1` [Compound 44, 5-(3-(3-Chloro-5-((2-chlorobenzyl)oxy)-4-fluorophenyl)-2-oxo-2H-[1,3′-bipyridin]-5-yl)pyrimidine-2,4(1H,3H)-dione], the “antiviral activity in the MTT assay” value [1] is reported as “lacked antiviral activity”, the “antiviral activity in the viral plaque assay” value [2] is reported as “showed activity” and the EC50 ([2]; MOI 0.01) is reported as 840 nM. The “cytotoxicity” value (Vero E6 cells) was “greatest cytotoxicity”, the CC50 (Vero E6 cells) was 1150 ± 500 nM and the CC50 [3] was 3500 ± 1000 nM.

With `N#Cc1ccccc1-c1cc(-c2cccc(Cl)c2)c(=O)n(-c2ccc[n+]([O-])c2)c1` [Compound 10] the IC50 [4, 7] was 15.6 ± 2.37 µM.

With `CCC(CC)COC(=O)[C@H](C)N[P@](=O)(OC[C@H]1O[C@@](C#N)(c2ccc3c(N)ncnn23)[C@H](O)[C@@H]1O)Oc1ccccc1` [remdesivir, reference compound] the CC50 (Vero E6 cells) was 72000 ± 28000 nM and the CC50 [3] was 41000 ± 2000 nM.

Compound `COCCOc1cc(Cl)cc(-c2cc(-c3ccccc3C#N)cn(-c3cccnc3)c2=O)c1` [Compound 16, 2-(3-(3-Chloro-5-(2-methoxyethoxy)phenyl)-2-oxo-2H-[1,3′-bipyridin]-5-yl)benzonitrile] has an IC50 [4, 8] of 0.47 ± 0.02 µM and an IC50 [4, 7] of 0.47 ± 0.02 µM.

For `N#Cc1cccc(-c2cc(-c3c[nH]c(=O)[nH]c3=O)cn(-c3cccnc3)c2=O)c1` [Compound 19], the IC50 [4, 7] was 10 µM.

`CC(C)(O)CCOc1cc(Cl)cc(-c2cc(-c3c[nH]c(=O)[nH]c3=O)cn(-c3cccnc3)c2=O)c1` [Compound 28] was tested, and the IC50 [4, 7] was 0.25 to 0.5 µM.

Work on `O=c1[nH]cc(-c2cc(-c3cc(Cl)cc(OCc4cccc(F)c4)c3)c(=O)n(-c3cccnc3)c2)c(=O)[nH]1` [Compound 35, 5-(3-(3-Chloro-5-((3-fluorobenzyl)oxy)phenyl)-2-oxo-2H-[1,3′-bipyridin]-5-yl)pyrimidine-2,4(1H,3H)-dione] yielded an IC50 ([4]; read-out: IC50) of 0.018 to 0.037 µM and an IC50 [4, 7] of 0.037 µM.
